The target in experiment [1] is T1, human CB2 receptor (Homo sapiens, UniProt P34972). The experiment in a line: PathHunter β-arrestin assay, CB2.
Experiment [2] addresses T1, human CB2 receptor. The experiment can be described thus: HTRF assay for direct cAMP measurement, CB2. The format is cell-based. More on the design: 93-0164 (CHO-K1 EA-Arrestin parental line); host or cells: CHO-K1 EA-Arrestin, clone #61. (In general: In TR-FRET formats the signal depends on donor and acceptor labels being close together.)

Usually EC50 stands for the concentration at which the effect is half-maximal.

T1 sequence (P34972 whole entry): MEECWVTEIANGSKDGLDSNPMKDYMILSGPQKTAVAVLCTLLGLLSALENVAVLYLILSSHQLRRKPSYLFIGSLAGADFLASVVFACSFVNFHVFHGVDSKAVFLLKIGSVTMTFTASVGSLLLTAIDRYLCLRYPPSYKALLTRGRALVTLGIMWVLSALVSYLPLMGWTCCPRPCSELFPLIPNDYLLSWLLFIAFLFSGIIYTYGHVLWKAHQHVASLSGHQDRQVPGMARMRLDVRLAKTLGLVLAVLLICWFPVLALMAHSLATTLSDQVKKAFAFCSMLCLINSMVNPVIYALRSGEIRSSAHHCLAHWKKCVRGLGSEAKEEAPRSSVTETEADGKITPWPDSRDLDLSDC

As to `O=C(NC1(CO)CC1)c1nn(-c2ccc(Cl)cc2Cl)c2c1C[C@H]1C[C@@H]21` [Compound 174, (1aR,5aR)-2-(2,4-Dichloro-phenyl)-1a,2,5,5a-tetrahydro-1H-2,3-diaza-cyclopropa[a]pentalene-4-carboxylic acid (1-hydroxymethyl-cyclopropyl)-amide], the EC50 at human CB2 receptor [1] worked out at 167 nM; on human CB2 receptor [2] it was 38.2 nM.

As to `CC(C)(CO)NC(=O)c1nn(-c2cnc(C#N)cn2)c2c1C[C@H]1C[C@@H]21` [Compound 264, (1aR,5aR)-2-(5-Cyano-pyrazin-2-yl)-1a,2,5,5a-tetrahydro-1H-2,3-diaza-cyclopropa[a]pentalene-4-carboxylic acid (2-hydroxy-1,1-dimethyl-ethyl)-amide], the EC50 on human CB2 receptor [2] was determined as 10.1 nM. Regarding `CC(C)(CO)NC(=O)c1nn(-c2ccc(F)cn2)c2c1C[C@H]1C[C@@H]21` [Compound 309, (1aR,5aR)-2-(5-Fluoro-pyridin-2-yl)-1a,2,5,5a-tetrahydro-1H-2,3-diaza-cyclopropa[a]pentalene-4-carboxylic acid (2-hydroxy-1,1-dimethyl-ethyl)-amide], the EC50 on human CB2 receptor [1] was determined as 136 nM; at human CB2 receptor [2] it was 19 nM. For the compound `CC(C)(CO)NC(=O)c1nn(-c2ccc(F)cc2F)c2c1C1CC1C2` (centres unmarked) [Compound 515, 1-(2,4-Difluoro-phenyl)-3b,4,4a,5-tetrahydro-1H-cyclopropa[3,4]cyclopenta[1,2-c]pyrazole-3-carboxylic acid (2-hydroxy-1,1-dimethyl-ethyl)-amide], the EC50 on human CB2 receptor [2] came to 4.32 nM. `CC(C)(C#N)NC(=O)c1nn(-c2cc(Cl)ccn2)c2c1C[C@H]1C[C@@H]21` [Compound 625, (1aR,5aR)-2-(4-Chloro-pyridin-2-yl)-1a,2,5,5a-tetrahydro-1H-2,3-diaza-cyclopropa[a]pentalene-4-carboxylic acid (cyano-dimethyl-methyl)-amide]: the EC50 stood at 11.8 nM on human CB2 receptor [1] and 4.45 nM on human CB2 receptor [2]. On the same counts, the results for `CC(C)(C)[C@@H](CO)NC(=O)c1nn(-c2cnccn2)c2c1C[C@H]1C[C@@H]21` [Compound 642, (1aR,5aR)-2-Pyrazin-2-yl-1a,2,5,5a-tetrahydro-1H-2,3-diaza-cyclopropa[a]pentalene-4-carboxylic acid ((S)-1-hydroxymethyl-2,2-dimethyl-propyl)-amide] are 26.4 nM and 4.38 nM. For `O=C(N[C@H](CO)C1CCOCC1)c1nn(-c2cnccn2)c2c1C[C@H]1C[C@@H]21` [Compound 684, (1aR,5aR)-2-Pyrazin-2-yl-1a,2,5,5a-tetrahydro-1H-2,3-diaza-cyclopropa[a]pentalene-4-carboxylic acid ((S)-2-hydroxy-1-tetrahydro-pyran-4-yl-ethyl)-amide], the EC50 was determined as 59 nM at human CB2 receptor [1] and 7.08 nM on human CB2 receptor [2]. For the compound `CC(C)[C@@H](CO)NC(=O)c1nn(-c2c[n+]([O-])ccn2)c2c1C[C@H]1C[C@@H]21` [Compound 690, (1aR,5aR)-2-(4-Oxy-pyrazin-2-yl)-1a,2,5,5a-tetrahydro-1H-2,3-diaza-cyclopropa[a]pentalene-4-carboxylic acid ((S)-1-hydroxymethyl-2-methyl-propyl)-amide], the EC50 was 31 nM on human CB2 receptor [1] and 1.79 nM at human CB2 receptor [2]. As for `CC(C)(C)[C@@H](CO)NC(=O)c1nn(-c2cnccn2)c2c1C[C@@H]1C[C@H]21` [Compound 696, (1aS,5aS)-2-Pyrazin-2-yl-1a,2,5,5a-tetrahydro-1H-2,3-diaza-cyclopropa[a]pentalene-4-carboxylic acid ((S)-1-hydroxymethyl-2,2-dimethyl-propyl)-amide], the results for the EC50 at human CB2 receptor [1] and on human CB2 receptor [2] were 49.4 nM and 6.89 nM, respectively. On the same counts, the results for `O=C(NC1(CO)CCC1)c1nn(-c2c[n+]([O-])ccn2)c2c1C[C@H]1C[C@@H]21` [Compound 698, (1aR,5aR)-2-(4-Oxy-pyrazin-2-yl)-1a,2,5,5a-tetrahydro-1H-2,3-diaza-cyclopropa[a]pentalene-4-carboxylic acid (1-hydroxymethyl-cyclobutyl)-amide] are 27.9 nM and 10.2 nM.

`O=C(NC1(c2ccccn2)CCC1)c1nn(-c2c[n+]([O-])ccn2)c2c1C[C@@H]1C[C@H]21` [Compound 700, (1aS,5aS)-2-(4-Oxy-pyrazin-2-yl)-1a,2,5,5a-tetrahydro-1H-2,3-diaza-cyclopropa[a]pentalene-4-carboxylic acid (1-pyridin-2-yl-cyclobutyl)-amide]: the values for the EC50 at human CB2 receptor [1] and at human CB2 receptor [2] were 31.5 nM and 3.14 nM, respectively. With `O=C(NC1(C(F)(F)F)CCC1)c1nn(-c2c[n+]([O-])ccn2)c2c1C[C@@H]1C[C@H]21` [Compound 765, (1aS,5aS)-2-(4-Oxy-pyrazin-2-yl)-1a,2,5,5a-tetrahydro-1H-2,3-diaza-cyclopropa[a]pentalene-4-carboxylic acid (1-trifluoromethyl-cyclobutyl)-amide], the results for the EC50 on human CB2 receptor [1] and on human CB2 receptor [2] were 1.16 nM and 0.1 nM, respectively. For `CC(CO)(CO)NC(=O)c1nn(-c2cc(C#N)ccn2)c2c1C[C@H]1C[C@@H]21` [Compound 820, (1aR,5aR)-2-(4-Cyano-pyridin-2-yl)-1a,2,5,5a-tetrahydro-1H-2,3-diaza-cyclopropa[a]pentalene-4-carboxylic acid (2-hydroxy-1-hydroxymethyl-1-methyl-ethyl)-amide] the same measures were 38.4 nM and 2.62 nM. As to `CC1(NC(=O)c2nn(-c3c[n+]([O-])ccn3)c3c2C[C@H]2C[C@@H]32)CCC1` [Compound 821, (1aR,5aR)-2-(4-Oxy-pyrazin-2-yl)-1a,2,5,5a-tetrahydro-1H-2,3-diaza-cyclopropa[a]pentalene-4-carboxylic acid (1-methyl-cyclobutyl)-amide], the figures for the EC50 on human CB2 receptor [1] and at human CB2 receptor [2] were 7.12 nM and 0.6 nM, respectively. Compound `CC(C)[C@@H](CO)NC(=O)c1nn(-c2c[n+]([O-])ccn2)c2c1C[C@@H]1C[C@H]21` [Compound 896, (1aS,5aS)-2-(4-Oxy-pyrazin-2-yl)-1a,2,5,5a-tetrahydro-1H-2,3-diaza-cyclopropa[a]pentalene-4-carboxylic acid ((S)-1-hydroxymethyl-2-methyl-propyl)-amide] displayed a 50% effective concentration (EC50) at human CB2 receptor [1] of 43.5 nM.

With `CC(C)(C)NNC(=O)c1nn(-c2c[n+]([O-])ccn2)c2c1C[C@@H]1C[C@H]21` [Compound 902, (1aS,5aS)-2-(4-Oxy-pyrazin-2-yl)-1a,2,5,5a-tetrahydro-1H-2,3-diaza-cyclopropa[a]pentalene-4-carboxylic acid N′-tert-butyl-hydrazide], on human CB2 receptor [1], the EC50 is 77.5 nM. Take `CC(C)(CF)NC(=O)c1nn(-c2c[n+]([O-])ccn2)c2c1C[C@@H]1C[C@H]21` [Compound 904, (1aS,5aS)-2-(4-Oxy-pyrazin-2-yl)-1a,2,5,5a-tetrahydro-1H-2,3-diaza-cyclopropa[a]pentalene-4-carboxylic acid (2-fluoro-1,1-dimethyl-ethyl)-amide]: on human CB2 receptor [1], the EC50 came out at 31.4 nM. The same measure, in the same setting: with `CC(C)[C@@H](C)NC(=O)c1nn(-c2c[n+]([O-])ccn2)c2c1C[C@@H]1C[C@H]21` [Compound 912, (1aS,5aS)-2-(4-Oxy-pyrazin-2-yl)-1a,2,5,5a-tetrahydro-1H-2,3-diaza-cyclopropa[a]pentalene-4-carboxylic acid ((R)-1,2-dimethyl-propyl)-amide] the figure was 9.49 nM. Consider `O=C(N[C@H](CO)c1ccccc1)c1nn(-c2c[n+]([O-])ccn2)c2c1C[C@@H]1C[C@H]21` [Compound 913, (1aS,5aS)-2-(4-Oxy-pyrazin-2-yl)-1a,2,5,5a-tetrahydro-1H-2,3-diaza-cyclopropa[a]pentalene-4-carboxylic acid ((S)-2-hydroxy-1-phenyl-ethyl)-amide], for which the EC50 at human CB2 receptor [1] (read-out: EC50 hCB2, β-arrestin, CHO-K1 cells, Table B-2) worked out at 105 nM. Consider `O=C(N[C@H]1c2ccccc2C[C@@H]1O)c1nn(-c2c[n+]([O-])ccn2)c2c1C[C@@H]1C[C@H]21` [Compound 920, (1aS,5aS)-2-(4-Oxy-pyrazin-2-yl)-1a,2,5,5a-tetrahydro-1H-2,3-diaza-cyclopropa[a]pentalene-4-carboxylic acid ((1S,2S)-2-hydroxy-indan-1-yl)-amide], for which the EC50 on human CB2 receptor [1] worked out at 4.6 nM. In the case of `O=C(N[C@H]1c2ccccc2C[C@H]1O)c1nn(-c2c[n+]([O-])ccn2)c2c1C[C@@H]1C[C@H]21` [Compound 921, (1aS,5aS)-2-(4-Oxy-pyrazin-2-yl)-1a,2,5,5a-tetrahydro-1H-2,3-diaza-cyclopropa[a]pentalene-4-carboxylic acid ((1S,2R)-2-hydroxy-indan-1-yl)-amide], the EC50 at human CB2 receptor [1] came out at 2.59 nM; on human CB2 receptor [2], 0.2 nM. For `O=C(NC1(CF)CCC1)c1nn(-c2c[n+]([O-])ccn2)c2c1C[C@@H]1C[C@H]21` [Compound 924, (1aS,5aS)-2-(4-Oxy-pyrazin-2-yl)-1a,2,5,5a-tetrahydro-1H-2,3-diaza-cyclopropa[a]pentalene-4-carboxylic acid (1-fluoromethyl-cyclobutyl)-amide] the same measures were 10.5 nM and 0.8 nM. In the case of `O=C(NC1(C(F)(F)F)CC1)c1nn(-c2cnccn2)c2c1C[C@@H]1C[C@H]21` [Compound 930, (1aS,5aS)-2-Pyrazin-2-yl-1a,2,5,5a-tetrahydro-1H-2,3-diaza-cyclopropa[a]pentalene-4-carboxylic acid (1-trifluoromethyl-cyclopropyl)-amide], at human CB2 receptor [1], the EC50 is 17 nM.

On human CB2 receptor [1], `CC(C)(CO)NC(=O)c1nn(-c2cc(F)ccn2)c2c1C[C@H]1C[C@@H]21` [Compound 931, (1aR,5aR)-2-(4-Fluoro-pyridin-2-yl)-1a,2,5,5a-tetrahydro-1H-2,3-diaza-cyclopropa[a]pentalene-4-carboxylic acid (2-hydroxy-1,1-dimethyl-ethyl)-amide] came in with an EC50 of 20.8 nM.

For the origin of these results see patent publication US12201633B2, “Compounds and methods for treatment of visceral pain” (Arena Pharmaceuticals, Inc., priority 2017, dated 2025).
